According to patent publication US3953483A, “17-Nor-6-methyl-steroids” (Takeda Chemical Industries, Ltd., priority 1973, dated 1976):
Entries after “also recorded” stand apart in the source; their conditions may differ.

Legend:
anti-androgenic activity = settings: known compounds, background; cited from earlier work
liver = settings: known compound, background; cited from earlier work
[1] = tested on: seminal vesicles, ventral prostate and dorsal prostates; test: anti-androgenic activity: inhibition of testosterone propionate-induced weight increase of secondary sex structures in castrated male rats, oral dosing; format: in vivo, rats (SD-JCL strain); settings: for Percent inhibition: Dorsal prostate / Percent inhibition: Seminal vesicles / Percent inhibition: Ventral prostate / Weight of organs: Dorsal prostate / Weight of organs: Seminal vesicles / Weight of organs: Ventral prostate: 5 rats; for Weight of organs: Dorsal prostate / Weight of organs: Seminal vesicles / Weight of organs: Ventral prostate: average ± standard error
Procedure: The following is the assay data on the anti-androgenic activity of 6-methylandrosta-4,6-dien-3-one(the test compound), a compound obtainable by the method of this invention. Testing procedure: Male rats of the SD-JCL strain, 21 days of age (body weights 40-55 g.) are castrated and, beginning on the next day, a daily dose of the test compound is suspended in 0.5 ml. of aqueous solvent and orally administered via a gastric catheter once daily, every day excepting Sundays, for a total of 10 times (12 days). Simultaneously with the administration of the test compound, a daily dose of 0.15 mg. of testosterone propionate is dissolved in 0.2 ml. of sesame oil and subcutaneously injected into the dorsal region of the neck.
On the day following the last day of administration, the rats are exsanguinated under ether anaesthesia and the seminal vesicles, ventral prostate and dorsal prostates are weighed. The anti-androgenic potency of the test compound is determined as follows.
dosed with testosterone
- dosed with testosterone
(%) dosed with testosterone

[2] = test compound 9.6mg. × 10 oral + testosterone propionate 0.15mg. × 10 s.c.
[3] = test compound 38.4mg. × 10 oral + testosterone propionate 0.15mg. × 10 s.c.
[4] = testosterone propionate 0.15mg. × 10 s.c. alone

For C[C@]12CC[C@H]3[C@@H](CCC4=CC(=O)CC[C@@H]43)[C@@H]1C[C@H](C1CCCCC1)[C@@H]2O [16β-cyclohexyl-17β-hydroxyestr-4-en-3-one], the “effectiveness by oral administration” value (anti-androgenic activity) is listed as “little effective by oral administration”.

For CC[C@H]1C[C@H]2[C@@H]3CCC4=CC(=O)CC[C@@H]4[C@H]3CC[C@]2(C)[C@H]1O [16β-ethyl-17β-hydroxyestr-4-en-3-one], the “effectiveness by oral administration” value (anti-androgenic activity) is listed as “little effective by oral administration”.

In the case of CCCCCC(=O)O[C@]1(C(C)=O)CC[C@H]2[C@@H]3CCC4=CC(=O)CC[C@@H]4[C@H]3CC[C@@]21C [17α-caproyloxy-19-norprogesterone], the side effect (liver) is listed as “causes `fatty liver` as a side effect”.

For CC[C@H]1C[C@H]2[C@@H]3CCC4=CC(=O)CC[C@@H]4[C@H]3CC[C@]2(C)[C@H]1OC(C)=O [17β-acetyloxy-16β-ethylestr-4-en-3-one], the “effectiveness by oral administration” value (anti-androgenic activity) is given as “little effective by oral administration”.

In the case of CC1=C[C@H]2[C@@H]3CCC[C@@]3(C)CC[C@@H]2[C@@]2(C)CCC(=O)C=C12 [test compound, 6-methylandrosta-4,6-dien-3-one], the “inhibition of weight increases of secondary sex structures / anti-androgenic activity (in words)” value ([1]; oral, caused by testosterone propionate) is reported as “significantly inhibits the weight increases of various secondary sex structures; also recorded: the degree of inhibition (percent inhibition) being proportional to the dosage; also recorded: potent anti-androgenic activity”, the “Percent inhibition: Dorsal prostate” value [1, 2] is reported as 38% and the “Percent inhibition: Seminal vesicles” value [1, 2] is reported as 53%. For the same compound, the “Percent inhibition: Ventral prostate” value [1, 2] was 34%, the “Weight of organs: Dorsal prostate” value [1, 2] was 62 ± 3 mg and the “Weight of organs: Seminal vesicles” value [1, 2] was 164 ± 15 mg. For the same compound, the “Weight of organs: Ventral prostate” value [1, 2] was 100 ± 4 mg, the “Percent inhibition: Dorsal prostate” value [1, 3] was 59% and the “Percent inhibition: Seminal vesicles” value [1, 3] was 77%. The “Percent inhibition: Ventral prostate” value [1, 3] was 53%, the “Weight of organs: Dorsal prostate” value [1, 3] was 44 ± 2 mg and the “Weight of organs: Seminal vesicles” value [1, 3] was 82 ± 5 mg. The “Weight of organs: Ventral prostate” value [1, 3] was 74 ± 4 mg.

In the case of CCC(=O)O[C@H]1CC[C@H]2[C@@H]3CCC4=CC(=O)CC[C@]4(C)[C@H]3CC[C@]12C [testosterone propionate, reference compound], the “Weight of organs: Dorsal prostate” value [1, 4] is reported as 96 ± 3 mg, the “Weight of organs: Seminal vesicles” value [1, 4] is reported as 337 ± 27 mg and the “Weight of organs: Ventral prostate” value [1, 4] is reported as 147 ± 7 mg.
